Some results are limits rather than exact numbers.

One assay has as its system Plutella xylostella. The assay is described as follows: Example B8: Plutella xylostella (diamond back moth), artificial diet 24-well, eggs. To be noted: 192 h, application rate of 200 ppm, 8 days after infestation, read-out: effect in at least one of the two categories (mortality or growth inhibition). Format: in vivo. As for the experimental part:
Example B8: Plutella xylostella (Diamond Back Moth)
24-well microtiter plates with artificial diet were treated with aqueous test solutions prepared from 10,000 ppm DMSO stock solutions by pipetting. After drying, Plutella eggs were pipetted through a plastic stencil onto a gel blotting paper and the plate was closed with it. The samples were assessed for mortality and growth inhibition in comparison to untreated samples 8 days after infestation.
The following compounds gave an effect of at least 80% in at least one of the two categories (mortality or growth inhibition) at an application rate of 200 ppm: […]
Consider `Cc1cc(Cl)c(Br)cc1NC(=O)N[C@@H](C)c1ncnn1-c1ncccn1` [Example P305, 1-(5-bromo-4-chloro-2-methyl-phenyl)-3-[(1S)-1-(2-pyrimidin-2-yl-1,2,4-triazol-3-yl)ethyl]urea], for which the percent effect (mortality or growth inhibition) at 200 ppm was ≥ 80%.
On the same count and under the same terms, the value for `C[C@H](NC(=O)Nc1cc(Cl)ccc1C(F)(F)F)c1ncnn1-c1ncccn1` [Example P12, 1-[5-chloro-2-(trifluoromethyl)phenyl]-3-[(1S)-1-(2-pyrimidin-2-yl-1,2,4-triazol-3-yl)ethyl]urea] was ≥ 80%; that for `C[C@H](NC(=O)Nc1nc(C2CC2)cc(C2CC2)n1)c1ncnn1-c1ncccn1` [Example P33, 1-(4,6-dicyclopropylpyrimidin-2-yl)-3-[(1S)-1-(2-pyrimidin-2-yl-1,2,4-triazol-3-yl)ethyl]urea] was ≥ 80%.
Same read-out and setting: under `Cc1cc(NC(=O)N[C@@H](C)c2ncnn2-c2ncccn2)c(Cl)cc1Br` [Example P290, 1-(4-bromo-2-chloro-5-methyl-phenyl)-3-[(1S)-1-(2-pyrimidin-2-yl-1,2,4-triazol-3-yl)ethyl]urea] stands ≥ 80%; under `CC(NC(=O)N1CCc2cc(C(F)(F)F)ncc21)c1ncnn1-c1ccc(C#N)cn1` (stereo not drawn) [Example P171, N-[1-[2-(5-cyano-2-pyridyl)-1,2,4-triazol-3-yl]ethyl]-5-(trifluoromethyl)-2,3-dihydropyrrolo[2,3-c]pyridine-1-carboxamide], ≥ 80%.
Turning to `COc1cc(NC(=O)N[C@@H](C)c2ncnn2-c2ncccn2)c(I)cc1Cl` [Example P288, 1-(4-chloro-2-iodo-5-methoxy-phenyl)-3-[(1S)-1-(2-pyrimidin-2-yl-1,2,4-triazol-3-yl)ethyl]urea], the percent effect (mortality or growth inhibition) at 200 ppm was ≥ 80%.
The same measure, in the same setting: the value for `CC(NC(=O)Nc1ccc(Cl)c(C(F)(F)F)c1)c1nccnc1-n1nccn1` (stereo not drawn) [Example P259, 1-[4-chloro-3-(trifluoromethyl)phenyl]-3-[1-[3-(triazol-2-yl)pyrazin-2-yl]ethyl]urea] was ≥ 80%; that for `CC(=O)c1cc(NC(=O)N[C@@H](C)c2ncnn2-c2ncccn2)c(Cl)cc1Cl` [Example P229, 1-(5-acetyl-2,4-dichloro-phenyl)-3-[(1S)-1-(2-pyrimidin-2-yl-1,2,4-triazol-3-yl)ethyl]urea] was ≥ 80%.

A further assay concerns Chilo suppressalis. The experiment in a line: Example B1: Chilo suppressalis (striped rice stemborer), artificial diet, L2 larvae. Format: in vivo. To be noted: 144 h, application rate of 200 ppm, 6 days after infestation, read-out: control in at least one of the three categories (mortality, anti-feedant effect, or growth inhibition). The method, then: Example B1: Chilo suppressalis (Striped Rice Stemborer)
24-well microtiter plates with artificial diet were treated with aqueous test solutions prepared from 10,000 ppm DMSO stock solutions by pipetting. After drying, the plates were infested with L2 larvae (6-8 per well). The samples were assessed for mortality, anti-feeding effect, and growth inhibition in comparison to untreated samples 6 days after infestation. Control of Chilo suppressalis by a test sample is given when at least one of the categories mortality, anti-feedant effect, and growth inhibition is higher than the untreated sample.
`C[C@H](NC(=O)Nc1cc(F)c(Br)cc1F)c1ncnn1-c1ncccn1` [Example P339, 1-(4-bromo-2,5-difluoro-phenyl)-3-[(1S)-1-(2-pyrimidin-2-yl-1,2,4-triazol-3-yl)ethyl]urea]: the percent control (mortality, anti-feedant effect or growth inhibition) at 200 ppm was ≥ 80%.
As to `Cc1cc(Br)ncc1NC(=O)N[C@@H](C)c1ncnn1-c1ncccn1` [Example P342, 1-(6-bromo-4-methyl-3-pyridyl)-3-[(1S)-1-(2-pyrimidin-2-yl-1,2,4-triazol-3-yl)ethyl]urea], the percent control (mortality, anti-feedant effect or growth inhibition) at 200 ppm was ≥ 80%.
Same read-out and setting: under `Cc1cc([N+](=O)[O-])c(C)cc1NC(=O)N[C@@H](C)c1ncnn1-c1ncccn1` [Example P323, 1-(2,5-dimethyl-4-nitro-phenyl)-3-[(1S)-1-(2-pyrimidin-2-yl-1,2,4-triazol-3-yl)ethyl]urea] stands ≥ 80%; under `C[C@H](NC(=O)Nc1ccc(F)cc1C(C)(F)F)c1ncnn1-c1ncccn1` [Example P45, 1-[2-(1,1-difluoroethyl)-4-fluoro-phenyl]-3-[(1S)-1-(2-pyrimidin-2-yl-1,2,4-triazol-3-yl)ethyl]urea], ≥ 80%; under `Cc1cc(Br)ccc1NC(=O)N[C@@H](C)c1ncnn1-c1ncccn1` [Example P106, 1-(4-bromo-2-methyl-phenyl)-3-[(1S)-1-(2-pyrimidin-2-yl-1,2,4-triazol-3-yl)ethyl]urea], ≥ 80%.
Regarding `Cc1cc2c(cc1NC(=O)N[C@@H](C)c1ncnn1-c1ncccn1)OCO2` [Example P344, 1-(6-methyl-1,3-benzodioxol-5-yl)-3-[(1S)-1-(2-pyrimidin-2-yl-1,2,4-triazol-3-yl)ethyl]urea], the percent control (mortality, anti-feedant effect or growth inhibition) at 200 ppm was ≥ 80%.
Still for that read-out and setting: under `C[C@H](NC(=O)Nc1cc2c(cc1Br)CCC(=O)N2)c1ncnn1-c1ncccn1` [Example P322, 1-(6-bromo-2-oxo-3,4-dihydro-1H-quinolin-7-yl)-3-[(1S)-1-(2-pyrimidin-2-yl-1,2,4-triazol-3-yl)ethyl]urea] stands ≥ 80%; under `Cc1cc(NC(=O)N[C@@H](C)c2ncnn2-c2ncccn2)c(Cl)cc1F` [Example P385, 1-(2-chloro-4-fluoro-5-methyl-phenyl)-3-[(1S)-1-(2-pyrimidin-2-yl-1,2,4-triazol-3-yl)ethyl]urea], ≥ 80%; under `C[C@H](NC(=O)Nc1cc(Cl)c(F)cc1F)c1ncnn1-c1ncccn1` [Example P379, 1-(5-chloro-2,4-difluoro-phenyl)-3-[(1S)-1-(2-pyrimidin-2-yl-1,2,4-triazol-3-yl)ethyl]urea], ≥ 80%.
On the same count and under the same terms, under `C[C@H](NC(=O)Nc1cc(C(F)(F)F)c(Cl)cc1F)c1ncnn1-c1ncccn1` [Example P393, 1-[4-chloro-2-fluoro-5-(trifluoromethyl)phenyl]-3-[(1S)-1-(2-pyrimidin-2-yl-1,2,4-triazol-3-yl)ethyl]urea] stands ≥ 80%; under `Cc1cc(F)c(C(F)(F)F)cc1NC(=O)N[C@@H](C)c1ncnn1-c1ncccn1` [Example P297, 1-[4-fluoro-2-methyl-5-(trifluoromethyl)phenyl]-3-[(1S)-1-(2-pyrimidin-2-yl-1,2,4-triazol-3-yl)ethyl]urea], ≥ 80%; under `C[C@H](NC(=O)Nc1ccc(F)cc1C(F)(F)F)c1ncnn1-c1ncccn1` [Example P116, 1-[4-fluoro-2-(trifluoromethyl)phenyl]-3-[(1S)-1-(2-pyrimidin-2-yl-1,2,4-triazol-3-yl)ethyl]urea], ≥ 80%.
Still for that read-out and setting: under `C[C@@H](c1ncnn1-c1ncccn1)N1CCCN(c2cc(OC(F)(F)C(F)F)c(Cl)cc2Cl)C1=O` [Example P311, 1-[2,4-dichloro-5-(1,1,2,2-tetrafluoroethoxy)phenyl]-3-[(1S)-1-(2-pyrimidin-2-yl-1,2,4-triazol-3-yl)ethyl]hexahydropyrimidin-2-one] stands ≥ 80%; under `COc1cc(C)c(NC(=O)N[C@@H](C)c2ncnn2-c2ncccn2)cc1F` [Example P378, 1-(5-fluoro-4-methoxy-2-methyl-phenyl)-3-[(1S)-1-(2-pyrimidin-2-yl-1,2,4-triazol-3-yl)ethyl]urea], ≥ 80%; under `Cc1cc(Cl)ncc1NC(=O)N[C@@H](C)c1ncnn1-c1ncccn1` [Example P318, 1-(6-chloro-4-methyl-3-pyridyl)-3-[(1S)-1-(2-pyrimidin-2-yl-1,2,4-triazol-3-yl)ethyl]urea], ≥ 80%.
As to `Cc1cc(NC(=O)N[C@@H](C)c2ncnn2-c2ncccn2)c(C)cc1F` [Example P295, 1-(4-fluoro-2,5-dimethyl-phenyl)-3-[(1S)-1-(2-pyrimidin-2-yl-1,2,4-triazol-3-yl)ethyl]urea], the percent control (mortality, anti-feedant effect or growth inhibition) at 200 ppm was ≥ 80%.
For `C[C@H](NC(=O)Nc1cc(Br)c(F)cc1I)c1ncnn1-c1ncccn1` [Example P371, 1-(5-bromo-4-fluoro-2-iodo-phenyl)-3-[(1S)-1-(2-pyrimidin-2-yl-1,2,4-triazol-3-yl)ethyl]urea], the percent control (mortality, anti-feedant effect or growth inhibition) at 200 ppm was ≥ 80%.
Same read-out and setting: the value for `COc1cc(NC(=O)N[C@@H](C)c2ncnn2-c2ncccn2)c(Br)cc1Cl` [Example P294, 1-(2-bromo-4-chloro-5-methoxy-phenyl)-3-[(1S)-1-(2-pyrimidin-2-yl-1,2,4-triazol-3-yl)ethyl]urea] was ≥ 80%; that for `Cc1cc(F)c(C#N)cc1NC(=O)N[C@@H](C)c1ncnn1-c1ncccn1` [Example P296, 1-(5-cyano-4-fluoro-2-methyl-phenyl)-3-[(1S)-1-(2-pyrimidin-2-yl-1,2,4-triazol-3-yl)ethyl]urea] was ≥ 80%.
Same read-out and setting: under `Cc1cc(C)c(N2CCCC2=O)cc1NC(=O)N[C@@H](C)c1ncnn1-c1ncccn1` [Example P212, 1-[2,4-dimethyl-5-(2-oxopyrrolidin-1-yl)phenyl]-3-[(1S)-1-(2-pyrimidin-2-yl-1,2,4-triazol-3-yl)ethyl]urea] stands ≥ 80%; under `COc1cc(S(C)(=O)=O)c(NC(=O)N[C@@H](C)c2ncnn2-c2ncccn2)cc1Cl` [Example P192, 1-(5-chloro-4-methoxy-2-methylsulfonyl-phenyl)-3-[(1S)-1-(2-pyrimidin-2-yl-1,2,4-triazol-3-yl)ethyl]urea], ≥ 80%; under `C[C@H](NC(=O)Nc1cc2c(cc1Br)CCC2)c1ncnn1-c1ncccn1` [Example P303, 1-(6-bromoindan-5-yl)-3-[(1S)-1-(2-pyrimidin-2-yl-1,2,4-triazol-3-yl)ethyl]urea], ≥ 80%.

The values above are taken from US20240108006A1, “PESTICIDALLY ACTIVE HETEROAROMATIC COMPOUNDS” (SYNGENTA CROP PROTECTION AG, priority 2021, published 2024).
